# Laboratory results published in patent US9353072B2, “Antimicrobial substituted thiazoles and methods of use” (Purdue Research Foundation, priority 2012, dated 2016).
# “Also recorded” adds a separate entry of the source. Where two headings read alike, the source gives them in different places.
# Legend:
# [1] = system: MRSA ATCC 700699 (NRS1, VISA); test: MIC/MBC broth microdilution, NRS1 (ATCC 700699); assay type: cell-based; settings: Staphylococcus aureus
# Outline: (§1)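 Using the CLSI broth microdilution procedure, minimum inhibitory concentrations were determined against the MRSA isolates, each in triplicate.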
# [2] = system: NRS108; test: MIC broth microdilution, NRS108; assay type: cell-based; settings: Staphylococcus aureus, Table 2, read-out: Minimum Inhibitory Concentration
# Method: (§2) Determination of minimum inhibitory concentration (MIC). The MICs of the lead thiazole compound (compound 1a) and nine derivatives tested against all 18 MRSA strains were determined, in triplicate samples, using the broth microdilution method in accordance with the recommendations contained in the CLSI guidelines.
# [3] = system: MRSA USA400 (NRS123); test: MIC/MBC broth microdilution, NRS123 (USA400); assay type: cell-based; settings: Staphylococcus aureus
# Outline: as §1
# [4] = system: NRS194; test: MIC/MBC broth microdilution, NRS194; assay type: cell-based; settings: Staphylococcus aureus
# Outline: as §1
# [5] = system: MRSA USA100; test: MIC broth microdilution, MRSA USA100; assay type: cell-based; settings: Staphylococcus aureus; Table 2; MRSA USA100; read-out: Minimum Inhibitory Concentration
# Method: as §2
# [6] = system: MRSA NRS384 (USA300); test: MIC/MBC broth microdilution, NRS384 (USA300); assay type: cell-based; settings: Staphylococcus aureus
# Outline: as §1
# [7] = system: MRSA USA500 (NRS385); test: MIC/MBC broth microdilution, NRS385 (USA500); assay type: cell-based; settings: Staphylococcus aureus
# Outline: as §1
# [8] = system: MRSA USA700; test: MIC broth microdilution, MRSA USA700; assay type: cell-based; settings: Staphylococcus aureus, Table 2, read-out: Minimum Inhibitory Concentration
# Method: as §2
# [9] = system: MRSA USA1100; test: MIC broth microdilution, MRSA USA1100; assay type: cell-based; settings: Staphylococcus aureus, Table 2, read-out: Minimum Inhibitory Concentration
# Method: as §2
# [10] = system: VRSA (VRS10); test: MIC/MBC broth microdilution, VRSA (VRS10); assay type: cell-based, Staphylococcus aureus; settings: Staphylococcus aureus, read-out: Minimum Inhibitory Concentration
# Outline: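 Values are minimum inhibitory concentrations obtained by the broth microdilution method under CLSI recommendations. Testing was run in triplicate.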
# [11] = system: 18 different strains of MRSA and VRSA; test: MIC broth microdilution, panel of 18 MRSA and VRSA strains (summary statements); assay type: cell-based, Staphylococcus aureus; settings: for improvement in the MIC value relative to the lead compound: relative to lead compound 1a, number of strains as stated in the sentence
# Method: as §2
# [12] = system: murine macrophage cells (J774.A1); test: In vitro cytotoxicity analysis, MTS assay; assay type: cell-based; settings: 16 μM, 24 hours
# Method: In vitro cytotoxicity analysis: Compounds were assayed at concentrations of 2 μM, 4 μM, 8 μM, and 16 μM against a macrophage cell line (J774.A1) to determine the potential toxic effect in vitro. Murine macrophage cells were cultured in Dulbeco's Modified Eagle Medium (Sigma-Aldrich, St. Louis, Mo., USA) with 10% Fetal Bovine Serum (USA Scientific, Inc.) at 37° C. with 5% CO2. Controls received DMSO alone at a concentration equal to that in drug-treated cell samples. The cells were incubated with the compounds in a 96-Well Plate at 37° C. and 5.0% CO2 for 24 hours prior to addition of the assay reagent MTS 3-(4,5-dimethylthiazol-2-yl)-5-(3-carboxymethoxyphenyl)-2-(4-sulfophenyl)-2H-tetrazolium) (Promega, Madison, Wis., USA). The reagent measures the succinate dehydrogenase mitochondrial activity as an indicator of cell viability and proliferation. Corrected absorbance readings (actual absorbance readings for each treatment subtracted from background absorbance) were taken using a kinetic ELISA microplate reader (Molecular Devices, Sunnyvale, Calif., USA). The quantity of viable cells after treatment with each compound was expressed as a percentage of the control, DMSO.
# [13] = system: MRSA ATCC 43300; test: MIC/MBC broth microdilution, MRSA ATCC 43300; assay type: cell-based, Staphylococcus aureus; settings: Staphylococcus aureus
# Outline: as §1
# [14] = system: VISA HIP07256 (NRS19); test: MIC/MBC broth microdilution, NRS19 (VISA HIP07256); assay type: cell-based; settings: Staphylococcus aureus
# Outline: as §1
# [15] = system: VISA LIM 3 (NRS37); test: MIC/MBC broth microdilution, NRS37 (VISA LIM 3); assay type: cell-based; settings: Staphylococcus aureus
# Outline: as §1
# [16] = system: NRS107; test: MIC/MBC broth microdilution, NRS107; assay type: cell-based; settings: Staphylococcus aureus
# Outline: as §1
# [17] = system: NRS119; test: MIC/MBC broth microdilution, NRS119; assay type: cell-based; settings: Staphylococcus aureus
# Outline: as §1
# [18] = system: MRSA USA800; test: MIC broth microdilution, MRSA USA800; assay type: cell-based; settings: Staphylococcus aureus, Table 2, read-out: Minimum Inhibitory Concentration
# Method: as §2
# [19] = system: MRSA (USA300); test: Time-kill assay; assay type: cell-based, Staphylococcus aureus; settings: 3.0×MIC; for bactericidal effect in time-kill assay: 12 hour incubation at 37° C.; for time to eliminate MRSA completely (reduce CFU to zero): MRSA (USA300)
# Method: Time-kill assay. […] Viable CFU/mL was determined by serial dilution and plating on trypticase soy agar (TSA) (Becton, Dickinson and Company, Sparks, Md., USA) plates after 0, 2, 4, 6, 8, 10, and 12 hours of incubation at 37° C. to identify the time required to reduce the bacterial cell count by 3-log10.
# [20] = system: MRSA ATCC 43300; test: Flow cytometry with LIVE/DEAD Fixable Dead Cell Stain; assay type: cell-based, Staphylococcus aureus; settings: compound 1a at 4.0×MIC; lysostaphin positive control; 10 minutes at 37° C.
# Method: Flow cytometry and LIVE/DEAD® Fixable Dead Cell Stain: The action of the lead compound on cell membrane permeability of MRSA was assayed using the LIVE/DEAD® Fixable Dead Cell Stain Kit (Invitrogen, Eugene, Oreg., USA) according to the manufacturer's instructions. […] Post-treatment cells were fixed with 3.7% formaldehyde; the cells were then screened with a Beckman Coulter FC500 flow cytometer.
# [21] = system: MRSA USA200; test: MIC broth microdilution, MRSA USA200; assay type: cell-based; settings: Staphylococcus aureus; Table 2; MRSA USA200; read-out: Minimum Inhibitory Concentration
# Method: as §2
# [22] = system: MRSA USA1000; test: MIC broth microdilution, MRSA USA1000; assay type: cell-based; settings: Staphylococcus aureus, Table 2, read-out: Minimum Inhibitory Concentration
# Method: as §2
# [23] = Table 2, MRSA ATCC 700699, read-out: Minimum Inhibitory Concentration
# [24] = Table 2, MRSA USA400, read-out: Minimum Inhibitory Concentration
# [25] = Table 2, read-out: Minimum Inhibitory Concentration
# [26] = Table 2, MRSA USA300, read-out: Minimum Inhibitory Concentration
# [27] = Table 2, MRSA USA500, read-out: Minimum Inhibitory Concentration
# [28] = Table 2, VISA LIM 3, read-out: Minimum Inhibitory Concentration
compound,measurement,setting,value
"C/C(=N\NC(=N)N)c1sc(-c2ccc(-c3ccccc3)cc2)nc1C [Compound 12, 2-{1-[2-([1,1′-Biphenyl]-4-yl)-4-methylthiazol-5-yl]ethylidene}hydrazinecarboximid-amide]",MIC,[1]; [23],0.6 µg/mL
same,MIC,[2],2.4 µg/mL
same,MIC,[3]; [24],0.6 µg/mL
same,MIC,[4]; [25],1.2 µg/mL
same,MIC,[5],2.4 µg/mL
same,MIC,[6]; [26],1.2 µg/mL
same,MIC,[7]; [27],1.2 µg/mL
same,MIC,[8],0.6 µg/mL
same,MIC,[9],0.6 µg/mL
same,MIC,"[10]; Table 2, VRSA",1.2 µg/mL
same,improvement in the MIC value relative to the lead compound,[11],two- to four-fold improvement
same,toxicity toward murine macrophage cells,[12],none were observed to be toxic
CCCCc1ccc(-c2nc(C)c(/C(C)=N/NC(=N)N)s2)cc1 [Compound 1a],MIC,"[13]; Table 4, MRSA ATCC 43300, 64 μM down to 0.5 μM, 37° C., 19 hours, read-out: Minimum Inhibitory Concentration",4 µM
same,MIC,"[13]; Table 7, MRSA (ATCC 43300), read-out: Minimum Inhibitory Concentration",4 µM
same,MBC,"[13]; Table 8, ATCC 43300, read-out: MBC",4 µM
same,MIC,"[13]; Table 8, ATCC 43300, read-out: MIC",4 µM
same,MIC,[1]; [23],1.4 µg/mL
same,MIC,"[1]; Table 7, VISA (NRS1), read-out: Minimum Inhibitory Concentration",16 µM
same,MBC,"[1]; Table 8, NRS1 (VISA), read-out: MBC",8 µM
same,MIC,"[1]; Table 8, NRS1 (VISA), triplicates, 20 hours, read-out: MIC",4 µM
same,MIC,"[14]; Table 2, VISA HIP07256, read-out: Minimum Inhibitory Concentration",1.4 µg/mL
same,MBC,"[14]; Table 8, NRS19 (VISA), read-out: MBC",8 µM
same,MIC,"[14]; Table 8, NRS19 (VISA), read-out: MIC",4 µM
same,MIC,[15]; [28],1.4 µg/mL
same,MBC,"[15]; Table 8, NRS37 (VISA), read-out: MBC",8 µM
same,MIC,"[15]; Table 8, NRS37 (VISA), read-out: MIC",8 µM
same,MBC,"[16]; Table 8, read-out: MBC",8 µM
same,MIC,"[16]; Table 8, read-out: MIC",8 µM
same,MIC,"[17]; NRS 119 / VISA, Table 7, VISA (NRS119), read-out: Minimum Inhibitory Concentration",4 µM
same,MBC,"[17]; Table 8, NRS119, read-out: MBC",8 µM
same,MIC,"[17]; Table 8, NRS119, read-out: MIC",8 µM
same,MBC,"[3]; Table 8, NRS123, read-out: MBC",4 µM
same,MIC,"[3]; Table 8, NRS123, read-out: MIC",4 µM
same,MBC,"[4]; Table 8, read-out: MBC",4 µM
same,MIC,"[4]; Table 8, read-out: MIC",4 µM
same,MIC,[5],5.5 µg/mL
same,MIC,[6]; [26],1.4 µg/mL
same,MIC,"[6]; Table 5, MRSA NRS384 (USA300), 128 μM down to 1.0 μM, 37° C., 19 hours, read-out: Minimum Inhibitory Concentration",4 µM
same,MBC,"[6]; Table 8, NRS384, read-out: MBC",4 µM
same,MIC,"[6]; Table 8, NRS384, read-out: MIC",4 µM
same,MIC,[7]; [27],1.4 µg/mL
same,MBC,"[7]; Table 8, NRS385, read-out: MBC",4 µM
same,MIC,"[7]; Table 8, NRS385, read-out: MIC",4 µM
same,MIC,[8],1.4 µg/mL
same,MIC,[18],2.8 µg/mL
same,MIC,"[10]; Table 7, VRSA (VRS10)",4 µM
same,"concentration inhibiting growth (MIC), range over the strains tested",[11]; 18 strains of MRSA and VRSA,1.4 to 5.5 µg/mL
same,bactericidal effect in time-kill assay,[19],bactericidal
same,time to eliminate MRSA completely (reduce CFU to zero),[19],within two hours
same,cells stained with the dye,[20],1.5%
CCCCCCCc1ccc(-c2nc(C)c(/C(C)=N/NC(=N)N)s2)cc1 [Compound 1e],MIC,[1]; [23],0.7 µg/mL
same,MIC,[15]; [28],0.7 µg/mL
same,MIC,[16]; [25],0.7 µg/mL
same,MIC,[5],1.5 µg/mL
same,MIC,[21],1.5 µg/mL
same,MIC,[6]; [26],3 µg/mL
same,MIC,[7]; [27],3 µg/mL
same,MIC,[8],3 µg/mL
same,MIC,[22],3 µg/mL
same,MIC,"[10]; Table 2, VRSA",3 µg/mL
same,toxicity toward murine macrophage cells,[12],exhibited toxicity; also recorded: toxic
"C/C(=N\NC(=N)N)c1sc(-c2ccc(C3CCCCC3)cc2)nc1C [Compound 8, 2-{1-[2-(4-Cyclohexylphenyl)-4-methylthiazol-5-yl]ethylidene}hydrazinecarboximid-amide]",MIC,[1]; [23],0.7 µg/mL
same,MIC,[15]; [28],0.4 µg/mL
same,MIC,[16]; [25],0.7 µg/mL
same,MIC,[3]; [24],0.7 µg/mL
same,MIC,[21],1.5 µg/mL
same,MIC,[6]; [26],0.7 µg/mL
same,MIC,[7]; [27],0.7 µg/mL
same,MIC,[9],0.7 µg/mL
same,improvement in the MIC value relative to the lead compound,[11],two- to four-fold improvement
same,bactericidal effect in time-kill assay,[19],bactericidal
same,time to eliminate MRSA completely (reduce CFU to zero),[19],six hours
same,toxicity toward murine macrophage cells,[12],none were observed to be toxic
